The values that follow come from US12624004B2 (Fudan University, priority 2019, dated 2026).

Structures can show the parent of a compound that is named as a salt. Where two headings read alike, the source gives them in different places.

By Ki is commonly meant a measure of affinity in units of concentration, obtained from inhibition or displacement.

The target in one experiment is T1, δ opioid receptor (Homo sapiens, UniProt P41143).
T1 construct: expressed in transfected cells; host or cells: CHO cells (membranes)
Put plainly: Competition binding assay on membranes of CHO cells expressing δ opioid receptor, [3H]-labeled ligand. The note with it: for Ki: read-out: δOR Ki. As for the experimental part:
(§1) CHO cells expressing p opioid receptor, δ opioid receptor and κ opioid receptor were cultured in 10 cm^2 culture dishes (F-12 medium+10% neonatal bovine serum) for several days, and the culture fluid was aspirated after the cells had grown to the bottom of the dishes; 3 ml of PBS/EDTA solution (0.1M NaCl, 0.01M NaH2PO4, 0.04% EDTA) was added to digest the cells for 3-5 min. Add ice-cold homogenate (50 mM HEPES PH 7.4, 3 mM MgCl, 1 mM EGTA) to the centrifuge tube, transfer the solution and sediment to a homogenizer and homogenize; then transfer the homogenate to a centrifuge tube and centrifuge at 18000 rpm. Centrifuge for 15 min, two times; the obtained precipitate was homogenized with appropriate amount of 50 mM Tris-HCl, pH 7.4 buffer and divided into centrifuge tubes and stored at −70° C. in the refrigerator until use.
(§2) The total binding tube was spiked with 20-30 μg of the expressed membrane receptor protein and […] ligand (1-2 nM), the corresponding non-specific binding tube was spiked with 1 μM of the corresponding ligand, and the sample tubes were spiked with various screened opioid ligands in a final volume of […], incubated at 30° C. for 30 min, and the reaction was terminated in ice water. […] The samples were filtered under negative pressure through GF/C (whatman) glass fiber filter paper on a Millipore sample collector. The reaction was rinsed three times with 4 ml of 50 mMV Tris-HCl (pH 7.4), the filter paper was dried and placed in 0.5 ml Eppendorf tubes with 0.5 ml of lipophilic scintillation solution, the radioactivity was measured by PERKIN ELMER PRI-CARB 2910 liquid scintillation counter and the inhibition rate was calculated. Inhibition rate (or binding rate)=(total binding rate dpm−sample tube dpm)/(total binding tube dpm−non-specific binding tube dpm)×100%
(§3) IC50 was calculated using Prism 5.0 software. the Ki value was calculated as follows, Ki=IC50/(1+[IL]/Kd), [lL] is the concentration of the added labeled ligand and Kd is the equilibrium dissociation parameter of the labeled ligand.
(§4) CHO cells expressing p opioid receptor, δ opioid receptor and κ opioid receptor were cultured in a 10 cm^2 culture dish (F-12 medium+10% neonatal bovine serum) for several days, and the culture fluid was aspirated after the cells grew to the bottom of the dish. 3 mL PBS/EDTA solution (0.1 M NaCl, 0.01 M NaH2PO4, 0.04% EDTA) was added to digest the cells for 3˜5 min, blew with a pipette to completely dislodge the cells. The cells were collected in a 40 mL centrifuge tube, centrifuged at 5000 rpm for 5 min. The supernatant was removed and the ice-cold homogenate (50 mM HEPES pH 7.4, 3 mM MgCl2, 1 mM EGTA) was added to the centrifuge tube. The solution and the precipitate were transferred to a homogenizer. Then the homogenate was transferred to a centrifuge tube and centrifuged at 18000 rpm for 15 min. The precipitate was centrifuged twice at 18000 rpm for 15 min. The obtained precipitate was homogenized by adding appropriate amount of 50 mM Tris-HCl, pH 7.4 buffer and divided into centrifuge tubes and stored at −70° C. in the refrigerator until use.
(§5) The total binding tube was added with 20-30 μg of expressed membrane receptor protein and [3H]-labeled ligand (1-2 nM). The corresponding non-specific binding tube was added with 1 μM of the corresponding ligand, and the sample tubes were added with various screened opioid ligands in a final volume of 100 μL. All of them were incubated for 30 min at 30° C., and the reaction was terminated in ice water. The samples were filtered under negative pressure through GF/C (Whatman) glass fiber filter paper on a Millipore sample collector. The reaction was rinsed three times with 4 mL of 50 mM Tris-HCl (pH 7.4), the filter paper was dried and placed in 0.5 mL Eppendorf tubes with 0.5 mL of lipophilic scintillation solution. […]

A further experiment concerns the target T2, μ opioid receptor (Homo sapiens, UniProt P35372).
T2 construct: expressed in transfected cells; host or cells: CHO cells (membranes)
Put plainly: Competition binding assay on membranes of CHO cells expressing μ opioid receptor, [3H]-labeled ligand. As to conditions: for Ki: read-out: μOR Ki. As for the experimental part:
as §1, §2, §3, §4, §5

Another experiment relates to Female mice. Put plainly: In vivo hot plate method analgesia test. The note with it: intraperitoneal; for % MPE (5 mg/kg): Table 2-2, hot plate 55° C.; for Maximum percentage effective analgesia (% MPE): Table 5-2, hot plate 55° C.; for Maximum percentage effective analgesia (% MPE) / % MPE @ 10 mg/kg: 10 mg/kg dose; for % MPE @ 10 mg/kg: Table 3-2, hot plate 55° C. As for the experimental part: Female mice weighing about 20 g were placed on a hot plate apparatus preheated to 55° C., and the latency of the hindfoot response of the mice was used as the pain threshold indicator. Animals were screened before the experiment, and those with response latency less than 5 s or more than 30 s were excluded. To prevent foot scalding, the maximum observation time was set at 60 s. The basal pain threshold was the average of two measurements, with a 5-min interval between measurements. pain thresholds were measured at 15 m, 30 m, 60 m and 120 m after intraperitoneal injection in each group of mice. The percentage effective analgesia (% MPE) was calculated according to the following formula: percentage effective analgesia (% MPE) (post-dose latency−pre-dose latency)/(60−pre-dose latency)×100%. ED50 values were calculated based on the effective percentage of analgesia using the software Graphpad prism 5.0 software.
(§6) Female mice weighing about 20 g were placed on a hot plate apparatus preheated to 55° C., and the latency of the hindfoot response of the mice was used as the pain threshold indicator. Animals were selected before the experiment, and those with response latency less than 5 s or greater than 30 s were excluded. To prevent foot scalding, the maximum observation time was set at 60 s. The basal pain threshold was the average of two measurements, with a 5-min interval between measurements. pain thresholds were measured at 15 min, 30 min, 60 min and 120 min after intraperitoneal administration in each group of mice. The percentage of analgesic effectiveness (% MPE) was calculated according to the following equation. Percentage of effective analgesia (% MPE)_(Pre-dose incubation period−Incubation period after drug administration)/(60-Pre-dose incubation period)×100%. ED50 values were calculated based on the effective percentage of analgesia using GraphPad prism 5.0 software.
as §6, with “were screened” for “were selected”, “measurements. Pain” for “measurements. pain”, “following formula.” for “following equation. Percentage of effective analgesia (% MPE)_(Pre-dose incubation period−Incubation period after drug administration)/(60-Pre-dose incubation period)×100%. ED50 values were calculated based on the effective percentage of analgesia using GraphPad prism 5.0 software.”
ED50 values were calculated based on the effective percentage of analgesia using Graphpad Prism 5.0.
Female mice weighing about 20 g were placed on a hot plate apparatus preheated to 55° C., and the latency of the hindfoot response of the mice was used as the pain threshold indicator. Animals were screened before the experiment, and those with response latency less than 5 s or more than 30 s were excluded. To prevent foot scalding, the maximum observation time was set at 60 s. The basal pain threshold was the average of two measurements, with a 5-min interval between measurements. pain thresholds were measured at 15 min, 30 min, 60 min and 120 min after intraperitoneal administration in each group of mice. The analgesic effective percentage (% MPE) was calculated according to the following formula: analgesic effective percentage (% MPE)=(latency after drug administration−latency before drug administration)/(60−latency before drug administration)×100%. ED50 values were calculated based on the effective percentage of analgesia using the software Graphpad prism 5.0.
Female mice weighing about 20 g were placed on a hot plate apparatus preheated to 55° C. and the latency of the hindfoot response was used as an indicator of pain threshold. […]
In general terms: In hot-plate and tail-flick tests a longer latency is read as antinociception.

The target of another experiment is T3, κ opioid receptor (Homo sapiens, UniProt P41145).
T3 construct: expressed in transfected cells; host or cells: CHO cells (membranes)
As to the kind of experiment: Competition binding assay on membranes of CHO cells expressing κ opioid receptor, [3H]-labeled ligand. The note with it: for Ki: Table 5-1, read-out: κOR Ki. How it is done:
as §1, §2, §3, §4, §5

The mark [1] stands for this setting: 0.5 h, Table 2-1, 1 μM concentration of compound, read-out: κOR Binding rate (%).
The mark [2] stands for this setting: 0.5 h, Table 3-1, 1 μM concentration of compounds, read-out: δOR Binding rate (%).
Setting [3] is: Table 3-1, 1 μM concentration of compounds, read-out: μOR Binding rate (%).
The mark [4] stands for this setting: 0.5 h, Table 3-1, 1 μM concentration of compounds, read-out: κOR Binding rate (%).
Where [5] appears, read: 0.5 h, Table 2-1, 1 μM concentration of compound, read-out: δOR Binding rate (%).

Consider `COc1cccc(C2(O)CCN(S(=O)(=O)Cc3ccc(F)cc3)CC2CN(C)C)c1.Cl` (stereo not shown) [FWBH12, 3-((Dimethylamino)methyl)-1-((4-fluorobenzyl)sulfonyl)-4-(3-methoxyphenyl)piperidin-4-ol hydrochloride], for which the Ki at δ opioid receptor (Table 2-1) turned out to be 1110 ± 28.5 nM; on μ opioid receptor (Table 2-1), 39.2 ± 6.13 nM. Also, the “% MPE (5 mg/kg)” value in the experiment on Female mice (5 mg/kg dose) was determined as 332.92%. Besides, on κ opioid receptor (setting [1]), the inhibition at 1 µM was 45.9 ± 2.11%.
For the compound `COc1cccc(C2(O)CCN(C(=O)Cc3cccc(C(F)(F)F)c3)CC2CN(C)C)c1.Cl` (stereo not shown) [FWBE4, 1-(3-((Dimethylamino)methyl)-4-hydroxy-4-(3-methoxyphenyl)piperidin-1-yl)-2-(3-(trifluoromethyl)phenyl)ethyl-1-one hydrochloride], the Ki is above 10000 nM on δ opioid receptor (Table 5-1) and 3030 ± 150 nM at κ opioid receptor. Further, at μ opioid receptor (0.5 h, Table 5-1, 1 μM concentration of compound, read-out: μOR Combination rate (%)), the inhibition at 1 µM worked out at 37.8 ± 2.9%. Moreover, in the experiment with Female mice, the “Maximum percentage effective analgesia (% MPE)” value is reported as 69%.
With `COc1cccc(C2(O)CCN(C(=O)N[C@@H](C)c3ccccc3)CC2CN(C)C)c1` (stereo partly drawn) [FWBF13, 3-((Dimethylamino)methyl)-4-hydroxy-4-(3-methoxyphenyl)-N-((S)-1-phenylethyl)piperidine-1-carboxamide hydrochloride], the values for the inhibition at 1 µM at δ opioid receptor (setting [2]), at μ opioid receptor (setting [3]) and on κ opioid receptor (setting [4]) were 0%, 20.5 ± 5.5% and 4.1 ± 6.7%, respectively. Further, in the experiment on Female mice, the “% MPE @ 10 mg/kg” value turned out to be 5.77%.
Take `CCCCS(=O)(=O)N1CCC(O)(c2cccc(OC)c2)C(CN(C)C)C1.Cl` (stereo not shown) [FWBH15, 1-(Butylsulfonyl)-3-((dimethylamino)methyl)-4-(3-methoxyphenyl)piperidin-4-ol hydrochloride]: the inhibition at 1 µM on δ opioid receptor (setting [5]) came out at 27.2 ± 1.43%; at κ opioid receptor (setting [1]), 9.86 ± 2.67%. For the same compound, the Ki at μ opioid receptor (Table 2-1) turned out to be 34.9 ± 9.4 nM. Besides, the “% MPE (5 mg/kg)” value in the experiment on Female mice (5 mg/kg dose) is recorded as 93.73%.
The corresponding values for `COc1cccc(C2(O)CCN(S(=O)(=O)Cc3ccc(C)cc3)CC2CN(C)C)c1.Cl` (stereo not shown) [FWBH8, 3-((Dimethylamino)methyl)-4-(3-methoxyphenyl)-1-((4-methylbenzyl)sulfonyl)piperidin-4-ol hydrochloride] are 11.9 ± 1.31%, 29 ± 0.32%, 247 ± 49.4 nM and 17.36%.
Take `COc1cccc(C2(O)CCN(C(=O)Nc3cc(Cl)c(Cl)c(Cl)c3)CC2CN(C)C)c1` (stereo not shown) [FWBF6, 3-((Dimethylamino)methyl)-4-hydroxy-4-(3-methoxyphenyl)-N-(3,4,5-trichlorophenyl) piperidine-1-carboxamide hydrochloride]: the values for the inhibition at 1 µM at δ opioid receptor (setting [2]), on μ opioid receptor (setting [3]) and at κ opioid receptor (setting [4]) were 0%, 13.2 ± 8% and 0%, respectively. Moreover, the “% MPE @ 10 mg/kg” value in the experiment with Female mice stood at 4.54%.
Turning to `COc1cccc(C2(O)CCN(C(=O)Cc3cccc(F)c3)CC2CN(C)C)c1.Cl` (stereo not shown) [FWBE12, 1-(3-((Dimethylamino)methyl)-4-hydroxy-4-(3-methoxyphenyl)piperidin-1-yl)-2-(3-fluorophenyl)ethyl-1-one hydrochloride], the inhibitory constant (Ki) on δ opioid receptor (Table 5-1) was 2390 ± 46 nM; at μ opioid receptor (Table 5-1) it was 82.3 ± 3.8 nM; at κ opioid receptor, 2360 ± 95.5 nM. The “Maximum percentage effective analgesia (% MPE)” value in the experiment with Female mice worked out at 88.38%.
As to `COc1cccc(C2(O)CCN(S(=O)(=O)Cc3cccc([N+](=O)[O-])c3)CC2CN(C)C)c1.Cl` (stereo not shown) [FWBH22, 3-((Dimethylamino)methyl)-4-(3-methoxyphenyl)-1-((3-nitrobenzyl)sulfonyl)piperidin-4-ol hydrochloride], the inhibition at 1 µM on δ opioid receptor (setting [5]) was determined as 10.2 ± 3.19%; at κ opioid receptor (setting [1]), 32.7 ± 3.1%. In addition, the Ki on μ opioid receptor (Table 2-1) is 212 ± 9 nM. The “% MPE (5 mg/kg)” value with Female mice (5 mg/kg dose) was 41.43%.
`COc1cccc(C2(O)CCN(C(=O)Cc3cccc(Cl)c3)CC2CN(C)C)c1.Cl` (stereo not shown) [FWBE9, 2-(3-Chlorophenyl)-1-(3-((dimethylamino)methyl)-4-hydroxy-4-(3-methoxyphenyl)piperidin-1-yl)ethyl-1-one hydrochloride]: the Ki on δ opioid receptor (Table 5-1) was 1640 ± 148 nM; at μ opioid receptor (Table 5-1) it was 24.2 nM; at κ opioid receptor, 1010 ± 60.1 nM. In addition, in the experiment on Female mice, the “Maximum percentage effective analgesia (% MPE)” value was 86.38%.
Take `COc1cccc(C2(O)CCC(CS(=O)(=O)c3ccccc3)CC2CN(C)C)c1.Cl` (stereo not shown) [2-((Dimethylamino)methyl)-1-(3-methoxyphenyl)-4-((phenylsulfonyl)methyl)cyclohexane-1-ol hydrochloride]: the inhibition at 10 µM at δ opioid receptor (0.5 h, Table 1-1, 10 μM concentration of compound, read-out: δOR Binding rate (%)) was 9.3%; on μ opioid receptor (Table 1-1, 10 μM concentration of compound, mean ± SD of three measurements, read-out: μOR Binding rate (%)) it was 86.9 ± 2%; on κ opioid receptor (0.5 h, Table 1-1, 10 μM concentration of compound, read-out: κOR Binding rate (%)) it was 34.6 ± 5.1%. The “Maximum percentage effective analgesic (% MPE)” value in the experiment on Female mice (Table 1-2, hot plate 55° C., 5 mg/kg dose) is reported as 22.4%.
